The subject of data set [1] is Botryotinia fuckeliana (Botrytis cinerea). The data set can be described thus: Botryotinia fuckeliana (Botrytis cinerea) / liquid culture (Gray mould). It counts as cell-based. The settings on record: growth inhibition photometrically 3-4 days after application, vs untreated control.
The subject of data set [2] is Fusarium culmorum. Briefly: microbe, parasite or virus in culture. It counts as cell-based. The settings on record: read-out: control of Fusarium culmorum.
Data set [3] relates to Monographella nivalis (Microdochium nivale). Briefly: Monographella nivalis (Microdochium nivale) / liquid culture (foot rot cereals). It counts as cell-based. The settings on record: growth inhibition photometrically 4-5 days after application, vs untreated control.
The subject of data set [4] is Magnaporthe grisea (Pyricularia oryzae). Briefly: microbe, parasite or virus in culture. It counts as cell-based. Particulars: read-out: control of Magnaporthe grisea.
Data set [5] deals with Glomerella lagenarium (Colletotrichum lagenarium). Briefly: Glomerella lagenarium (Colletotrichum lagenarium) / liquid culture (Anthracnose). It counts as cell-based. Particulars: Colletotrichum orbiculare, growth inhibition photometrically 3-4 days after application, vs untreated control.
For data set [6], the system named is Fusarium culmorum. The data set can be described thus: whole plant or invertebrate. The settings on record: in Triticum aestivum, 144 h, read-out: control of Fusarium culmorum. It counts as in vivo.

Where only a bound is given, the exact number is not on record here.

For `Cc1c2ccccc2nn1CC(C)(CC(C)C)NC(=O)c1cnc2c(F)cccc2c1` (centres unmarked) [E17], the inhibition of growth at 20 ppm (in data set [1]; in the data set on Fusarium culmorum [2]; in data set [3]) was at least 80% each time.

In the case of `CON1CCC(CC(C)(CC(F)(F)F)NC(=O)c2cnc3c(C)cccc3c2)CC1` (centres unmarked) [E27], the inhibition of growth at 20 ppm (in data set [1]; in data set [4]; in data set [5]; in the data set on Fusarium culmorum [2]) was at least 80% each time.

Take `CC(C)C[C@](C)(CN1CCCC(F)(F)C1)NC(=O)c1cnc2c(F)cccc2c1` (single isomer, unassigned) [F1]: the inhibition of growth at 20 ppm (in data set [1]; in data set [4]; in data set [5]; in the data set with Fusarium culmorum [2]) was at least 80% in each case.

On to `CC1=NN(CC(C)(CC(C)C)NC(=O)c2cnc3c(F)cccc3c2)CCC1` (centres unmarked) [E23], for which the inhibition of growth at 20 ppm (in data set [1]; in data set [5]; with Fusarium culmorum [2]; in data set [3]) was at least 80% each time.

As for `CC(CC1CCOCC1)(CC(F)(F)F)NC(=O)c1cnc2ccccc2c1` (centres unmarked) [E31], the inhibition of growth at 20 ppm in data set [1] was at least 80%.

Turning to `CC(C)CC(C)(CN1CCCC(F)(F)C1)NC(=O)c1cnc2c(F)cccc2c1` (centres unmarked) [E3], the inhibition of growth at 20 ppm (in data set [1]; in data set [4]; in data set [5]; with Fusarium culmorum [2]) was at least 80% in each case. Also, the pest or weed control at 200 ppm in the data set on Fusarium culmorum [6] is at least 80%.

In the case of `CC(CC1CCCOC1)(CC(F)(F)F)NC(=O)c1cnc2c(F)cccc2c1` (centres unmarked) [E38], the melting point was in the range of 85 to 88 °C. The inhibition of growth at 20 ppm in data set [1] was at least 80%. Also, in data set [4], the inhibition of growth at 20 ppm was at least 80%. This compound came in with an inhibition of growth at 20 ppm in data set [5] of at least 80%. In addition, the inhibition of growth at 20 ppm with Fusarium culmorum [2] is at least 80%. Moreover, the inhibition of growth at 20 ppm in data set [3] is at least 80%.

Take `CC(C)CC(C)(CN1CCC(=C(F)F)CC1)NC(=O)c1cnc2c(F)cccc2c1` (centres unmarked) [E4]: the inhibition of growth at 20 ppm (in data set [1]; in data set [4]; in data set [5]; with Fusarium culmorum [2]) was at least 80% throughout.

Consider `Cc1cccc2cc(C(=O)NC(C)(CC3CCCOC3)CC(F)(F)F)cnc12` (centres unmarked) [E37], for which the inhibition of growth at 20 ppm (in data set [1]; in data set [4]; in data set [5]; with Fusarium culmorum [2]; in data set [3]) was at least 80% each time.

Regarding `CON1CCC(CC(C)(CC(F)(F)F)NC(=O)c2cnc3ccccc3c2)CC1` (centres unmarked) [E26], the inhibition of growth at 20 ppm (in data set [1]; in data set [4]; in data set [5]; in the data set with Fusarium culmorum [2]) was at least 80% each time. In addition, in the data set on Fusarium culmorum [6], the pest or weed control at 200 ppm is at least 80%.

Regarding `Cc1ccc(CC(C)(CC(C)C)NC(=O)c2cnc3c(F)cccc3c2)s1` (centres unmarked) [E13], the inhibition of growth at 20 ppm (in data set [1]; in data set [4]; in data set [5]; with Fusarium culmorum [2]) was at least 80% in each case.

Turning to `Cc1cc(C)n(CC(C)(CC(C)C)NC(=O)c2cnc3c(F)cccc3c2)n1` (centres unmarked) [E21], the inhibition of growth at 20 ppm (in data set [1]; in data set [4]; in data set [5]; in the data set on Fusarium culmorum [2]; in data set [3]) was at least 80% in each case.

Take `Cc1cc(C(F)(F)F)nn1CC(C)(CC(C)C)NC(=O)c1cnc2c(F)cccc2c1` (centres unmarked) [E16]: the melting point lay within 140 to 144 °C. The inhibition of growth at 20 ppm in data set [4] was at least 80%.

In turn, `CC(Cc1ccnc(F)c1)(CC(F)(F)F)NC(=O)c1cnc2c(F)cccc2c1` (centres unmarked) [E30] returned a melting point of 136 to 142 °C. In data set [1], this compound yielded an inhibition of growth at 20 ppm of at least 80%. Besides, the pest or weed control at 200 ppm in the data set with Fusarium culmorum [6] was at least 80%. The inhibition of growth at 20 ppm in data set [4] is at least 80%. The inhibition of growth at 20 ppm in the data set on Fusarium culmorum [2] was at least 80%.

With `CC(Cc1ccc(F)nc1)(CC(F)(F)F)NC(=O)c1cnc2c(F)cccc2c1` (centres unmarked) [E29], the melting point lay in the range of 70 to 74 °C. For the same compound, in data set [1], the inhibition of growth at 20 ppm was at least 80%. The inhibition of growth at 20 ppm in data set [5] is at least 80%. The inhibition of growth at 20 ppm with Fusarium culmorum [2] is at least 80%.

Regarding `Cc1cnc(CC(C)(CC(C)(C)C)NC(=O)c2cnc3c(F)cccc3c2)o1` (centres unmarked) [E1], the inhibition of growth at 20 ppm (in data set [1]; in data set [5]; in the data set on Fusarium culmorum [2]; in data set [3]) was at least 80% each time.

`CC(CC1CCOCC1)(CC(F)(F)F)NC(=O)c1cnc2c(F)cccc2c1` (centres unmarked) [E25] came in with a melting point of 150 to 151 °C. In data set [1], this compound gave an inhibition of growth at 20 ppm of at least 80%. The inhibition of growth at 20 ppm in data set [5] was at least 80%. Moreover, in the data set on Fusarium culmorum [2], the inhibition of growth at 20 ppm is at least 80%.

With `CC(C)CC(C)(CN1CCSCC1)NC(=O)c1cnc2c(F)cccc2c1` (centres unmarked) [E7], the inhibition of growth at 20 ppm (in data set [1]; in data set [4]; in the data set with Fusarium culmorum [2]) was at least 80% in each case.

Consider `Cc1nn(CC(C)(CC(C)C)NC(=O)c2cnc3c(F)cccc3c2)c(C)c1Cl` (centres unmarked) [E19], for which the melting point lay in the range of 134 to 138 °C. In data set [1], this compound showed an inhibition of growth at 20 ppm of at least 80%. This compound also registered an inhibition of growth at 20 ppm in data set [5] of at least 80%. Besides, the inhibition of growth at 20 ppm with Fusarium culmorum [2] is at least 80%. The compound further had an inhibition of growth at 20 ppm in data set [3] of at least 80%.

Take `CC(Cc1cccc(F)n1)(CC(F)(F)F)NC(=O)c1cnc2c(F)cccc2c1` (centres unmarked) [E34]: the inhibition of growth at 20 ppm (in data set [1]; in data set [4]; in data set [5]; in the data set on Fusarium culmorum [2]) was at least 80% each time. For the same compound, the pest or weed control at 200 ppm in the data set on Fusarium culmorum [6] was at least 80%.

The compound `Cc1nn(CC(C)(CC(C)C)NC(=O)c2cnc3c(F)cccc3c2)c(C)c1C` (centres unmarked) [E20] displayed a melting point of 140 to 144 °C. In data set [1], this compound gave an inhibition of growth at 20 ppm of at least 80%. In data set [5], this compound registered an inhibition of growth at 20 ppm of at least 80%. Further, the inhibition of growth at 20 ppm in the data set with Fusarium culmorum [2] was at least 80%. The inhibition of growth at 20 ppm in data set [3] was at least 80%.

`Cc1nn(CC(C)(CC(C)C)NC(=O)c2cnc3c(F)cccc3c2)c2ccccc12` (centres unmarked) [E18]: the inhibition of growth at 20 ppm (in data set [1]; in data set [5]; with Fusarium culmorum [2]) was at least 80% in each case.

For the compound `CC(C)CC(C)(CN1CCC(F)(F)CC1)NC(=O)c1cnc2c(F)cccc2c1` (centres unmarked) [E5], the inhibition of growth at 20 ppm (in data set [1]; in data set [4]; in data set [5]; with Fusarium culmorum [2]) was at least 80% throughout.

`CC(C)(C)CC(C)(Cc1ncco1)NC(=O)c1cnc2c(F)cccc2c1` (centres unmarked) [E11]: the inhibition of growth at 20 ppm (in data set [1]; in data set [5]; with Fusarium culmorum [2]) was at least 80% throughout.

Regarding `Cc1noc(CC(C)(CC(C)(C)C)NC(=O)c2cnc3c(F)cccc3c2)n1` (centres unmarked) [E2], the inhibition of growth at 20 ppm (in data set [1]; in data set [4]; in data set [5]; in the data set with Fusarium culmorum [2]) was at least 80% throughout.

As to `CC(C)CC(C)(Cc1cccs1)NC(=O)c1cnc2c(F)cccc2c1` (centres unmarked) [E12], the inhibition of growth at 20 ppm (in data set [1]; in data set [4]; in data set [5]; in the data set on Fusarium culmorum [2]) was at least 80% in each case. The pest or weed control at 200 ppm in the data set with Fusarium culmorum [6] was at least 80%.

Consider `CON1CCC(CC(C)(CC(F)(F)F)NC(=O)c2cnc3c(F)cccc3c2)CC1` (centres unmarked) [E28], for which the melting point fell in the range of 76 to 86 °C. The compound also registered an inhibition of growth at 20 ppm in data set [1] of at least 80%. Besides, in data set [5], the inhibition of growth at 20 ppm was at least 80%. In addition, in the data set with Fusarium culmorum [2], the inhibition of growth at 20 ppm is at least 80%.

The compound `CC(C)CC(C)(Cc1cnc(Cl)s1)NC(=O)c1cnc2c(F)cccc2c1` (centres unmarked) [E9] had a melting point of 171 to 173 °C. The inhibition of growth at 20 ppm in data set [1] is at least 80%. The pest or weed control at 200 ppm in the data set with Fusarium culmorum [6] was at least 80%. Besides, in data set [4], the inhibition of growth at 20 ppm is at least 80%. In addition, the inhibition of growth at 20 ppm in the data set with Fusarium culmorum [2] was at least 80%.

As for `Cc1ncc(CC(C)(CC(C)C)NC(=O)c2cnc3c(F)cccc3c2)s1` (centres unmarked) [E8], the melting point was 146 to 150 °C. In data set [1], this compound returned an inhibition of growth at 20 ppm of at least 80%. Besides, the inhibition of growth at 20 ppm in data set [4] was at least 80%. In addition, the inhibition of growth at 20 ppm in data set [5] is at least 80%. In addition, the inhibition of growth at 20 ppm in the data set on Fusarium culmorum [2] is at least 80%.

Take `Cc1cc(C(F)(F)F)n(CC(C)(CC(C)C)NC(=O)c2cnc3c(F)cccc3c2)n1` (centres unmarked) [E15]: the pest or weed control at 200 ppm in the data set on Fusarium culmorum [6] was at least 80%. The inhibition of growth at 20 ppm (in data set [4]; in data set [5]; in the data set with Fusarium culmorum [2]) was at least 80% each time.

Take `Cc1cccc2cc(C(=O)NC(C)(CC3CCOCC3)CC(F)(F)F)cnc12` (centres unmarked) [E32]: the inhibition of growth at 20 ppm (in data set [1]; in data set [4]; in data set [5]; in the data set on Fusarium culmorum [2]) was at least 80% each time.

Compound `CC(CC1CCCOC1)(CC(F)(F)F)NC(=O)c1cnc2ccccc2c1` (centres unmarked) [E36] had a melting point of 81 to 84 °C. This compound had an inhibition of growth at 20 ppm in data set [1] of at least 80%. In data set [5], this compound came in with an inhibition of growth at 20 ppm of at least 80%. In the data set on Fusarium culmorum [2], the inhibition of growth at 20 ppm was at least 80%.

In turn, `CC(Cc1cccc(F)n1)(CC(F)(F)F)NC(=O)c1cnc2ccccc2c1` (centres unmarked) [E35] gave a melting point of 109 to 111 °C. Moreover, the inhibition of growth at 20 ppm in data set [1] is at least 80%. The pest or weed control at 200 ppm with Fusarium culmorum [6] was at least 80%. Besides, the inhibition of growth at 20 ppm in data set [5] was at least 80%. Also, the inhibition of growth at 20 ppm in the data set with Fusarium culmorum [2] is at least 80%.

For the origin of these results see patent US11266146B2, “Microbiocidal quinoline (thio)carboxamide derivatives” (SYNGENTA PARTICIPATIONS AG, priority 2017, dated 2022).
